Experiments:
[1] = Stability test in canine liver microsomes; assay type: in vitro ADME; details: dog
Protocol: (§1) 6. Stability Test in Canine Liver Microsomes At 37° C., 1 μM of the test compound was incubated with canine liver microsomes (0.5 mg/mL) supplemented with NADPH regeneration system for 5, 15, 30, 45 and 60 minutes, and then LC-MS/MS method was used to detect the concentration of the test compound in the generated sample. The half-life (T1/2) and inherent clearance rate (CLint(mic)) of the compound in canine liver microsome solution were obtained by calculating at the corresponding time points and the remaining percentage of the compound.

hERG potassium channel = target: T1, hERG potassium channel (Homo sapiens, UniProt Q12809); assay: Effects on hERG potassium channels, manual whole cell patch-clamp in CHO cells; assay type: cell-based; details: hERG potassium current, room temperature
T1 construct: expressed in transfected cells
T1 sequence (Q12809 whole entry): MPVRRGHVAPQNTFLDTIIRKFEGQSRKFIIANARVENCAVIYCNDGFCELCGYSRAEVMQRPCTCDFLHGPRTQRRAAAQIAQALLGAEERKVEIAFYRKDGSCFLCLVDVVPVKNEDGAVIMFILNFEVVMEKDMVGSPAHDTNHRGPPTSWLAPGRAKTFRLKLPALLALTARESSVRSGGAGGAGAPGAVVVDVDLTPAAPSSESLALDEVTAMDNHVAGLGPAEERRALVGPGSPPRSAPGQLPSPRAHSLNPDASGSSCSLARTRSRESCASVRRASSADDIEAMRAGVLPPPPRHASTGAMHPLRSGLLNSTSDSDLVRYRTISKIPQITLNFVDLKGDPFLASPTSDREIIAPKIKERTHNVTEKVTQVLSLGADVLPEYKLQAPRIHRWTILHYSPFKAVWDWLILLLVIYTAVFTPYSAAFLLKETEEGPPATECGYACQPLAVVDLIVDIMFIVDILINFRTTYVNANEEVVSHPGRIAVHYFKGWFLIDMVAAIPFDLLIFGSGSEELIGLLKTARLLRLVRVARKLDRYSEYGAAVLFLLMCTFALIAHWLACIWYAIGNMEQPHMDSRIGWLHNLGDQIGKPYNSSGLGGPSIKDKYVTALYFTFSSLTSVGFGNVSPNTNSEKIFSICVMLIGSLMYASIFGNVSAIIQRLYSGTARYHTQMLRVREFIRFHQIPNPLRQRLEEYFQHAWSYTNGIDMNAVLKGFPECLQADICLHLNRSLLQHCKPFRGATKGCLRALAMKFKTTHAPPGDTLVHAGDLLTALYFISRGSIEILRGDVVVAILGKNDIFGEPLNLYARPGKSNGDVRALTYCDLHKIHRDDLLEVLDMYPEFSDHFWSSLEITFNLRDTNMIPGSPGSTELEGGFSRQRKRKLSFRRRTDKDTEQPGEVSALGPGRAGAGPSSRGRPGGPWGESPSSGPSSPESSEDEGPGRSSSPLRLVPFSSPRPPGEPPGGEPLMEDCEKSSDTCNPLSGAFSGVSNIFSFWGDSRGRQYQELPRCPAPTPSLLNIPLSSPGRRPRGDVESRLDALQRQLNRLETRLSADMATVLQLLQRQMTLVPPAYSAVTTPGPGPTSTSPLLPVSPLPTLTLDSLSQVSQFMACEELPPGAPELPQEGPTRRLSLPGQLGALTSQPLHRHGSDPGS
Text: 2. Effects of the Compounds on hERG Potassium Channels
Experimental platform: electrophysiological manual patch-clamp system
Cell line: Chinese hamster ovary (CHO) cells stably expressing hERG potassium ion channel
Experimental method: For CHO (Chinese Hamster Ovary) cells stably expressing hERG potassium channel, whole cell patch-clamp technique was used to recorded hERG potassium channel current at room temperature in this experiment. The glass microelectrode is made of a glass electrode blank (BF150-86-10, Sutter) by a puller. The tip resistance after filling the liquid in the electrode is about 2-5 MΩ. The glass microelectrode can be connected to the patch-clamp amplifier by inserting the glass microelectrode into an amplifier probe. The clamping voltage and data recording are controlled and recorded by the pClamp 10 software through a computer. The sampling frequency is 10 kHz, and the filtering frequency is 2 kHz. After the whole cell records were obtained, the cells were clamped at −80 mV, and the step voltage that induced the hERG potassium current (IhERG) was depolarized from −80 mV to +20 mV for 2 s, then repolarized to −50 mV, and returned to −80 mV after 1 s. This voltage stimulation was given every 10 s, and the administration process was started after the hERG potassium current was confirmed to be stable (at least 1 minute). The compound was administered for at least 1 minute at each test concentration, and at least 2 cells (n≥2) were tested at each concentration.
Data analysis processing was carried out by using pClamp 10, GraphPad Prism 5 and Excel software. The inhibition degree of hERG potassium current (peak value of hERG tail current induced at −50 mV) at different compound concentrations was calculated by the following formula: Inhibition %=[1−(I/Io)]×100%.
Among the formula, Inhibition % represents the percentage of inhibition of hERG potassium current by the compound, and I and Io represent the amplitude of hERG potassium current after and before dosing, respectively.
Compound IC50 was calculated using GraphPad Prism 5 software by fitting according to the following equation:
Y=Bottom+(Top−Bottom)/(1+10^((LogIC50−X)×HillSlope))
Among the equation, X represents the Log value of the tested concentration of the test sample, Y represents the inhibition percentage at the corresponding concentration, and Bottom and Top represent the minimum and maximum inhibition percentage, respectively.

[2] = Stability test in mouse liver microsomes; assay type: in vitro ADME; details: mouse liver microsomes 0.5 mg/mL, 1 μM compound, NADPH, 37° C.; for microsomal CLint at 1 μM: read-out: CLint(mic)
Protocol: as §1, with “3.” for “6.”, “Mouse” for “Canine”, “mouse” for “canine”, “10, 20, 30” for “15, 30, 45”

[3] = Stability test in monkey liver microsomes; assay type: in vitro ADME
Protocol: as §1, with “4.” for “6.”, “Monkey” for “Canine”, “monkey” for “canine”

PDE10A1 = target: T2, PDE10A1 (Homo sapiens, UniProt Q9Y233); assay: PDE10A1 inhibition by fluorescence polarization; assay type: biochemical; details: PDE10A1 kit, read-out: IC50 (μM), inhibitory effect on PDE10A1
T2 construct: purchased Biomol (BPS Bioscience) BPS-60385
T2 sequence (Q9Y233 1-779 isoform Q9Y233-1): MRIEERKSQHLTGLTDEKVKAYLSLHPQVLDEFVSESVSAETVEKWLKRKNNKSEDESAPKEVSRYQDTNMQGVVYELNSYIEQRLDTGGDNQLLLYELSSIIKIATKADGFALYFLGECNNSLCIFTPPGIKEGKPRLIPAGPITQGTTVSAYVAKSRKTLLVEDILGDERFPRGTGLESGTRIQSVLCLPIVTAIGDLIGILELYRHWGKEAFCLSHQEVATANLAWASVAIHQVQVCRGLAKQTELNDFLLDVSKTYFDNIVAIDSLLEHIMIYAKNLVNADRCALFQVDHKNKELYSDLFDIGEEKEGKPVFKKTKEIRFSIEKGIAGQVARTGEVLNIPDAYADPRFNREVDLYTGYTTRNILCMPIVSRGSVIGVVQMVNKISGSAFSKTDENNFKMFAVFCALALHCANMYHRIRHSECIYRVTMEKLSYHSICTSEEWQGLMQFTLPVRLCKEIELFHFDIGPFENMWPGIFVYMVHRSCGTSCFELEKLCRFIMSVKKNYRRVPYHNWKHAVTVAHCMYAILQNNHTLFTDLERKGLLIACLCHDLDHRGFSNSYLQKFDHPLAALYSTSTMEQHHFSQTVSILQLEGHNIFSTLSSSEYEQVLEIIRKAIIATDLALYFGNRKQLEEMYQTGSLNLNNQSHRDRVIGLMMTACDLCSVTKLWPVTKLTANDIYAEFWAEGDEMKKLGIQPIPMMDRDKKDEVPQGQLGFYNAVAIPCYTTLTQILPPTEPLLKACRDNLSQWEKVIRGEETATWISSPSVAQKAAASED
Text: 8. Activity of the Compounds on PDE10A1
In this experiment, the effect of the compounds on the inhibition of PDE10A1 activity was detected by the method of fluorescence polarization. PDE10A1 kit was used for detection (Biomol, BPS-60385). […]

[4] = Stability test in human liver microsomes; assay type: in vitro ADME; details: human liver microsomes 0.5 mg/mL, 1 μM compound, NADPH, 37° C.
Protocol: as §1, with “7.” for “6.”, “Human” for “Canine”, “human” for “canine”, “10, 20, 30” for “15, 30, 45”

SMILES	microsomal CLint at 1 μM ([1]; microsomes) [µL/min/mg]	half-life at 1 μM ([1]; canine liver microsomes 0.5 mg/mL, 1 μM compound, NADPH, 37° C.) [h]	IC50 (hERG potassium channel) [µM]	half-life at 1 μM [2] [h]	microsomal CLint at 1 μM [2] [µL/min/mg]	half-life at 1 μM ([3]; monkey liver microsomes 0.5 mg/mL, 1 μM compound, NADPH, 37° C.) [h]	microsomal CLint at 1 μM ([3]; monkey, microsomes) [µL/min/mg]	IC50 (PDE10A1) [µM]	half-life at 1 μM [4] [h]	microsomal CLint at 1 μM ([4]; read-out: CLint(mic)) [µL/min/mg]
N#Cc1ccc(COc2cccc(C3CCN(Cc4nc5sc(C(=O)O)cc5n4C[C@@H]4CCO4)CC3)n2)c(F)c1 [Compound 1, (S)-2-((4-(6-((4-cyano-2-fluorobenzyl)oxy)pyridin-2-yl)piperidin-1-yl)methyl)-1-(oxetan-2-ylmethyl)-1H-thieno[2,3-d]imidazole-5-carboxylic acid]	0.23	102	33.6	–	–	–	–	–	–	–
N#Cc1ccc(COc2cccc(C3=CCN(Cc4nc5sc(C(=O)O)cc5n4C[C@@H]4CCO4)CC3)n2)c(F)c1 [Compound 2, (S)-2-((6-((4-cyano-2-fluorobenzyl)oxy)-3′,6′-dihydro-[2,4′-bipyridin]-1′(2′H)-yl)methyl)-1-(oxetan-2-ylmethyl)-1H-thieno[2,3-d]imidazole-5-carboxylic acid]	–	–	52.2	23.6	0.977	14	1.6	> 500	–	–
CC1(c2ccc(C#N)cc2F)Oc2cccc(C3CCN(Cc4nc5sc(C(=O)O)cc5n4C[C@@H]4CCO4)CC3)c2O1 (stereo partly shown) [Compound 5-2]	–	–	> 40	93.1	0.252	–	–	–	–	–
N#Cc1ccc(COc2cccc(-c3ccc(Cc4nc5ccc(C(=O)O)cc5n4C[C@@H]4CCO4)c(F)c3)n2)c(F)c1 [Compound DZ-6, reference compound]	–	–	–	2.17	10.6	–	–	–	2.88	8.01
